# Test results taken from patent US20100196874A1, “METHOD OF DRUG DESIGN” (priority 2006, published 2010).
# pIC50: −log10 of the molar value. Like-named read-outs stand apart in the source and are kept apart here.
# How the values were obtained:
# [1] = test system: CVB3; settings: for pIC50: read-out: IC5, HeLa cell culture with CVB3; for order of antiviral potency: CVB3, same order as against HRV2; for antiviral effect against CVB3 relative to cytotoxic effect: % virus yield versus % cell metabolism, HeLa cells, FIG. 1
# Excerpt: (§1) The toxicity of the compounds (CC50, being the concentration causing 50% reduction in cell metabolism as measured by Alamar Blue assay) reflects the relative activity of each compound against cellular ion channels, while the antiviral activity (IC50) reflects the relative activity of each compound against the RdRP of CVB3.
# [2] = test system: HeLa cells
# Excerpt: as §1
# [3] = test system: HRV2; settings: cited from earlier work
# [4] = test system: CVB3; assay: Reversibility: compounds removed at various times post-infection, CVB3 yield at 10 hours; format: cell-based, Coxsackievirus B3; settings: compounds removed at 1, 2 or 4 hours post-infection, HeLa cells
# Method: Virus replication was then allowed to continue until 10 hours post-infection.
# [5] = test system: amiloride-resistant and guanidine-resistant CVB3 clones; assay: Cross-resistance of amiloride-resistant and guanidine-resistant virus clones; format: cell-based, Coxsackievirus B3
# [6] = test system: CVB3; assay: Time of addition of drugs to CVB3-infected cultures, total virus yield; format: cell-based, Coxsackievirus B3; settings: 400 μM amiloride or 25 μM EIPA, added up to 2 hours post-infection, yield at 10 hours
# Method: Cultures were incubated until 10 hours post-infection, then the total virus yield (released virus+intracellular virus) was quantitated (FIG. 2A). Kinetics of virus production was measured in parallel (FIG. 2B). […] This contrasts with well-known antiviral drugs active against picornaviruses such as Pleconaril, which prevent uncoating and/or binding to the cell.
# [7] = test system: CVB3; assay: Viral assembly: viral RNA (3H-uridine) versus virus produced; format: cell-based, Coxsackievirus B3; settings: 3H-uridine labelling; 25 micromolar EIPA (compared with 500 micromolar guanidine), 400 micromolar amiloride
# Method: In a further set of experiments, the effect of the drugs on viral assembly was determined. […] Guanidine is well known to inhibit the initiation of viral RNA replication through its effect on the viral 2C protein, but has no effect on the assembly of virus from RNA that is replicated in its presence. Infected cells were incubated with 3H-uridine to label viral RNA, and RNA was detected by electrophoresis and autoradiography.
# [8] = test system: CVB3 mutants S299T, A372V, D48G; assay: Drug sensitivity of CVB3 carrying single introduced mutations; format: cell-based, Coxsackievirus B3; settings: for effect of D48G mutation on virus sensitivity: 2A protein mutation by itself; for sensitivity of viruses containing S299T or A372V mutations: 3D protein mutations, FIG. 11
# [9] = test system: CVB3; assay: Release of virus from CVB3-infected cells; format: cell-based, Coxsackievirus B3; settings: compared to untreated controls, FIG. 3
# [10] = test system: CVB3; assay: Viral RNA synthesis, 3H-uridine pulse label; format: cell-based, Coxsackievirus B3; settings: treated between four and five hours post infection, compared to untreated cells
# Method: A standard method to determine which of the two processes is inhibited directly is to add the inhibitor and pulse-label viral RNA and proteins at the time in the replication cycle when sufficient amounts of RNA and proteins have been produced to allow continuation of one process independent of the other.
# In a further set of experiments, the effect of the drugs on viral protein synthesis (see FIG. 5) and viral RNA synthesis (see FIG. 6) was determined. Cells were infected as described in Examples 2 and 3, and drugs were added to cells at four hours post infection. Radioactive labels (35S-methionine for proteins, 3H-uridine for RNA) were added to cells from 4.5-5 h post infection. Treatment with GHCl, which inhibits enteroviral RNA replication but not protein synthesis was used as a control.
# [11] = concentration causing 50% reduction in cell metabolism, Alamar Blue assay, HeLa
compound,measurement,setting,value
"N=C(NCc1ccc(Cl)cc1Cl)NC(=O)c1nc(Cl)c(N)nc1N [2,4-DCB]",pIC50,[1],5.30
same,CC5,[2]; [11],14 µM
"N/C(=N\C(=O)c1nc(Cl)c(N)nc1N)NCc1ccc(Cl)c(Cl)c1 [3,4-DCB]",pIC50,[1],5.30
same,CC5,[2]; [11],14 µM
"NC(N)=NC(=O)c1nc(Cl)c(N)nc1N [Amiloride, 3,5-diamino-6-chloro-N-(diaminomethylidene) pyrazine-2-carboxamide]",effect upon HRV2 RNA replication,[3],no effect
same,CVB3 production at 10 hours post-infection after removal of compound,[4],equivalent to that of the untreated cultures
same,order of antiviral potency,[1],EIPA>benzamil>amiloride
same,pIC50,[1],4.30
same,sensitivity of guanidine-resistant virus clones to antiviral effect,[5]; six clones of guanidine-resistant virus,remained sensitive
same,reduction of virus replication by time of addition,[6],fully effective
same,amount of viral RNA produced,[7],greatly reduced
same,effect of D48G mutation on virus sensitivity,[8],no significant effect
same,sensitivity of viruses containing S299T or A372V mutations,[8],reduced sensitivity
same,proportion of extracellular virus,[9],slight increase
same,amount of viral RNA synthesis,[10],dramatically reduced
same,CC5,[2],>1000 µM
N/C(=N\C(=O)c1nc(Cl)c(N)nc1N)NCc1ccccc1 [Benzamil],antiviral effect against CVB3 relative to cytotoxic effect,[1],selective antiviral effect
same,order of antiviral potency,[1],EIPA>benzamil>amiloride
same,pIC50,[1],5.00
same,CC5,[2]; [11],100 µM
CNC(N)=NC(=O)c1cc(Cl)ccc1O [CHMG],pIC50,[1],5.05
same,CC5,[2]; [11],155 µM
CN(C)c1nc(N)c(C(=O)N=C(N)N)nc1Cl [DMA],pIC50,[1],4.05
same,CC5,[2]; [11],190 µM
"CCN(c1nc(N)c(C(=O)N=C(N)N)nc1Cl)C(C)C [EIPA, 5-(N-ethyl-N-isopropyl)amiloride]",effect upon HRV2 RNA replication,[3],no effect
same,effect on HRV2 release,[3]; previous data,inhibitory effect
same,CVB3 production at 10 hours post-infection after removal of compound,[4],equivalent to that of the untreated cultures
same,antiviral effect against CVB3 relative to cytotoxic effect,[1],selective antiviral effect
same,order of antiviral potency,[1],EIPA>benzamil>amiloride
same,pIC50,[1],5.70
same,reduction of virus replication by time of addition,[6],fully effective
same,amount of viral RNA produced,[7],equivalent amounts of viral RNA
same,effect of D48G mutation on virus sensitivity,[8],no significant effect
same,sensitivity of viruses containing S299T or A372V mutations,[8],reduced sensitivity
same,proportion of extracellular virus,[9],slight increase
same,amount of viral RNA synthesis,[10],dramatically reduced
same,CC5,[2]; [11],25 µM
"NC(N)=NC(=O)c1nc(Cl)c(N2CCCCCC2)nc1N [HMA, 5-(N,N-hexamethylene)amiloride]",antiviral effect against CVB3 relative to cytotoxic effect,[1],selective antiviral effect
same,pIC50,[1],5.70
same,CC5,[2],25 µM
CC(C)CN(C)c1nc(N)c(C(=O)N=C(N)N)nc1Cl [MIBA],pIC50,[1],5.70
same,CC5,[2]; [11],25 µM
"Cl.N=C(N)N [guanidine, guanidine hydrochloride]",sensitivity of amiloride-resistant virus clones to antiviral effect,[5]; six clones of amiloride-resistant virus,remained sensitive
CHPG,pIC50,[1],5.70
same,CC5,[2]; [11],15 µM
